Results on three molecules are retold here after article PMC4601594, “An active site–tail interaction in the structure of hexahistidine-tagged Thermoplasma acidophilum citrate synthase” (Acta Crystallographica. Section F, Structural Biology …, 2015).

By Kd is commonly meant the equilibrium constant for the complex coming apart. Higher therefore signals lower affinity. By Km is commonly meant the concentration of substrate that gives half-maximal velocity.

Data set [1] has as its target T1, citrate synthase (TpCSH6) (Thermoplasma acidophilum, UniProt P21553).
T1 construct: gene gltA; full-length TpCS (lacking N-terminal Met) with C-terminal His6 tag (TpCSH6)
T1 sequence (P21553 2-385): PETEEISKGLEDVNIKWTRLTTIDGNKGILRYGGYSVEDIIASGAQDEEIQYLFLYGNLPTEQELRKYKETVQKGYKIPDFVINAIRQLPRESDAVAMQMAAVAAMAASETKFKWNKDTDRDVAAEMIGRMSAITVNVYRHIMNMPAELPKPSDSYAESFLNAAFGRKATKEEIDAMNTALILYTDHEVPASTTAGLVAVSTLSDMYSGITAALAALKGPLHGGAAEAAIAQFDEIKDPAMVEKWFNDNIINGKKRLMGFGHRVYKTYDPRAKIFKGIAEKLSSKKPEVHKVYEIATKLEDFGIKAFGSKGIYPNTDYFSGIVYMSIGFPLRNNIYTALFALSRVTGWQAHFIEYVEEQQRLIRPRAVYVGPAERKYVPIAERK
As to the kind of experiment: fluorescence titration (Trp348 quenching). It counts as binding.

Data set [2] has as its target T2, citrate synthase (TpCSH6-H222Q) (Thermoplasma acidophilum, UniProt P21553, H223Q).
T2 construct: gene gltA; full-length TpCS with C-terminal His6 tag, H222Q mutant
As to the kind of experiment: fluorescence titration (Trp348 quenching). The format is binding.

Data set [3] addresses T1, citrate synthase (TpCSH6). As to the kind of experiment: fluorescence titration of the TpCSH6–OAA complex (CitMX formation); also competitive inhibition versus AcCoA, Ki =[…]. The format is binding.
Substrate in data set [4]: CC(=O)SCCNC(=O)CCNC(=O)[C@H](O)C(C)(C)COP(=O)(O)OP(=O)(O)OC[C@H]1O[C@@H](n2cnc3c(N)ncnc32)[C@H](O)[C@@H]1OP(=O)(O)O
As to the kind of experiment: purified protein. The following applies: oxaloacetate (co-substrate) AcCoA binding site (His222, Asp317).

T2 sequence (P21553 2-385 H223Q): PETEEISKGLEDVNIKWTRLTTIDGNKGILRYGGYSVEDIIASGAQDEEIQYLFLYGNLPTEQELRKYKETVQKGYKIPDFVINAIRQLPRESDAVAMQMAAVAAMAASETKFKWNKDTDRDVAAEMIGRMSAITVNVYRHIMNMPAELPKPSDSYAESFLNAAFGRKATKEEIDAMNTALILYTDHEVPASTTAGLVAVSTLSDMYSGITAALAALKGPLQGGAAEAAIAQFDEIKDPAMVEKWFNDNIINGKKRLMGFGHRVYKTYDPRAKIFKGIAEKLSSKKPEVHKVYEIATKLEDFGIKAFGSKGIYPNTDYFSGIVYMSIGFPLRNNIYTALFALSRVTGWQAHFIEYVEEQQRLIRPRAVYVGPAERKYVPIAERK

On to `O=C(O)CC(=O)C(=O)O` [OAA, oxaloacetate], for which the Kd stood at 760 nM in data set [1] and 19000 nM in data set [2].

In data set [3], `CC(=O)CCCNC(=O)CCNC(=O)[C@H](O)C(C)(C)COP(=O)(O)OP(=O)(O)OC[C@H]1O[C@@H](n2cnc3c(N)ncnc32)[C@H](O)[C@@H]1OP(=O)(O)O` [AcMX, dethiaacetyl-CoA] registered a Kd of 1500 nM.

B1: citrate synthase (TpCSH6) (Thermoplasma acidophilum DSM 1728) (protein)
chain: T1 sequence (P21553 2-385)
Consider B1, for which the Km in data set [4] worked out at 3.0 µM.
